This test concerns the target T1, PD-1/PD-L1 complex (Homo sapiens, UniProt Q9NZQ7).
T1 construct: purchased cis-bio
The test is described as follows: HTRF assay of PD-1/PD-L1 complex inhibition (cis-bio kit). Particulars: 1 h, scouting mode, 5 nM PD-L1, 50 nM PD-1, read-out: HTRF [%] (percentage of dissociated PD-1/PD-L1 complex); for inhibition at 0.5 µM: inhibitor 0.5 µM; for inhibition at 5 µM: inhibitor 5 µM. The class given is binding. How it is done: All synthesized molecules were tested in the homogeneous time-resolved fluorescence (HTRF) assay to assess their activity as inhibitors of the PD-1/PD-L1 complex (Table 1, Table 2 and Table 3). This evaluation was conducted in scouting modes, employing concentrations of 5 μM and 0.5 μM. Based on the obtained measurements, the IC50 values were estimated for each tested compound.
The certified cis-bio assay kit was used to perform the HTRF assay. Following the standard protocol, the measurement was carried out at a 20 µL final volume with a 5 nM concentration of PD-L1 and a 50 nM concentration of PD-1 in the final formulation. […] The plate was incubated for 1 h and then read on an HTRF-certified Tecan Spark 20M microplate reader. Output data were subjected to background subtraction on negative control (without PD-1) and normalization in correlation to the positive control (without inhibitor) and were then averaged. The resulting data points were then fitted with Hill’s equation to generate IC50 using Mathematica 12. […]
In general terms: Time-resolved FRET reads energy transfer from a long-lived donor to a nearby acceptor.

Structures are written as SMILES.

T1 sequence (Q9NZQ7 19-238 limits assumed, one chain of several): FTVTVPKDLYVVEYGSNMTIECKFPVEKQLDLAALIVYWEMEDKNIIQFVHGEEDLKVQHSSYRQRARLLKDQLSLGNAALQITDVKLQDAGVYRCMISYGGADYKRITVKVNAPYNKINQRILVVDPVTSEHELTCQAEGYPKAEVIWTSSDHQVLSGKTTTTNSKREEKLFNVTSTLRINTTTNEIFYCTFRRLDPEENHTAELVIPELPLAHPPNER

For the compound `COc1cc(-c2cccc(-c3ccc(COc4ccc(CNCCO)cc4OC)c(OC)c3)c2C)ccc1COc1ccc(CNCCO)cc1OC` [Compound 7b, 2,2′-((((((3,3′′-dimethoxy-2′-methyl-[1,1′:3′,1′′-terphenyl]-4,4′′-diyl)bis(methylene))bis(oxy))bis(3-methoxy-4,1-phenylene))bis(methylene))bis(azanediyl))bis(ethan-1-ol)], the inhibition at 0.5 µM was determined as 60.9 ± 3.9% and the inhibition at 5 µM is 11.9 ± 1%.

Turning to `COc1cc(CNCCNC(C)=O)ccc1OCc1ccc(-c2cccc(-c3ccc(COc4ccc(CNCCNC(C)=O)cc4OC)cc3C)c2C)c(C)c1` [Compound 7c, N,N’-(((((((2,2′,2′′-trimethyl-[1,1′:3′,1′′-terphenyl]-4,4′′-diyl)bis(methylene))bis(oxy))bis(3-methoxy-4,1-phenylene))bis(methylene))bis(azanediyl))bis(ethane-2,1-diyl))diacetamide], the inhibition at 0.5 µM came out at 82.1 ± 8% and the inhibition at 5 µM amounted to 77.1 ± 0.7%.

For `COc1cc(CNCCO)ccc1OCc1ccc(-c2cccc(-c3ccc(COc4ccc(CNCCO)cc4OC)cc3C)c2C)c(C)c1` [Compound 7d, 2,2′-((((((2,2′,2′′-trimethyl-[1,1′:3′,1′′-terphenyl]-4,4′′-diyl)bis(methylene))bis(oxy))bis(3-methoxy-4,1-phenylene))bis(methylene))bis(azanediyl))bis(ethan-1-ol)], the inhibition at 0.5 µM came out at 86.1 ± 12.7% and the inhibition at 5 µM came out at 35.7 ± 3.3%.

As for `COc1cc(CNCCNC(C)=O)ccc1OCc1ccc(-c2cccc(-c3ccc(COc4ccc(CNCCNC(C)=O)cc4OC)c(C)c3)c2C)cc1C` [Compound 7e, N,N’-(((((((2′,3,3′′-trimethyl-[1,1′:3′,1′′-terphenyl]-4,4′′-diyl)bis(methylene))bis(oxy))bis(3-methoxy-4,1-phenylene))bis(methylene))bis(azanediyl))bis(ethane-2,1-diyl))diacetamide], the inhibition at 0.5 µM was 93.8 ± 3.6% and the inhibition at 5 µM was determined as 55.3 ± 13.4%.

As for `COc1cc(CNCCO)ccc1OCc1ccc(-c2cccc(-c3ccc(COc4ccc(CNCCO)cc4OC)c(C)c3)c2C)cc1C` [Compound 7f, 2,2′-((((((2′,3,3′′-trimethyl-[1,1′:3′,1′′-terphenyl]-4,4′′-diyl)bis(methylene))bis(oxy))bis(3-methoxy-4,1-phenylene))bis(methylene))bis(azanediyl))bis(ethan-1-ol)], the inhibition at 0.5 µM stood at 93.1 ± 17.4% and the inhibition at 5 µM was 46.4 ± 9.6%.

With `COc1cc(CNC(CO)CO)ccc1OCc1ccc(-c2cccc(-c3ccc(COc4ccc(CNC(CO)CO)cc4OC)c(C)c3)c2C)cc1C` [Compound 7g, 2,2′-((((((2′,3,3′′-trimethyl-[1,1′:3′,1′′-terphenyl]-4,4′′-diyl)bis(methylene))bis(oxy))bis(3-methoxy-4,1-phenylene))bis(methylene))bis(azanediyl))bis(propane-1,3-diol)], the inhibition at 0.5 µM amounted to 94.5 ± 18.1% and the inhibition at 5 µM worked out at 53.7 ± 1.7%.

On to `CC(=O)NCCNCc1cc(F)c(OCc2ccc(-c3cccc(-c4ccc(COc5cc(F)c(CNCCNC(C)=O)cc5F)c(C)c4)c3C)cc2C)cc1F` [Compound 7h, N,N’-(((((((2′,3,3′′-trimethyl-[1,1′:3′,1′′-terphenyl]-4,4′′-diyl)bis(methylene))bis(oxy))bis(2,5-difluoro-4,1-phenylene))bis(methylene))bis(azanediyl))bis(ethane-2,1-diyl))diacetamide], for which the inhibition at 0.5 µM amounted to 84.1 ± 26.4% and the inhibition at 5 µM came out at 69 ± 0.9%.

As to `Cc1cc(-c2cccc(-c3ccc(COc4cc(F)c(CNCCO)cc4F)c(C)c3)c2C)ccc1COc1cc(F)c(CNCCO)cc1F` [Compound 7i, 2,2′-((((((2′,3,3′′-trimethyl-[1,1′:3′,1′′-terphenyl]-4,4′′-diyl)bis(methylene))bis(oxy))bis(2,5-difluoro-4,1-phenylene))bis(methylene))bis(azanediyl))bis(ethan-1-ol)], the inhibition at 0.5 µM was 78.5 ± 7.3% and the inhibition at 5 µM turned out to be 42.2 ± 7.2%.

The values are drawn from paper PMC11173618, “C2-Symmetrical Terphenyl Derivatives as Small Molecule Inhibitors of Programmed Cell Death 1/Programmed Death Ligand 1 Protein–Protein Interaction” (Molecules, 2024).
